Source: patent publication US20100226889A1, “HCV Combination Therapies” (priority 2007, published 2010)
“Also recorded” adds a separate entry of the source.

Assays:
[1] = test system: genotype 1 HCV; conditions: PROVE 1
[2] = Randomized, double-blind, placebo-controlled single-dose escalation study in healthy male volunteers; assay type: in vivo, human; conditions: single doses, 25 mg to 1250 mg
Procedure: Doses of 25 mg to 1250 mg were evaluated.

[3] = test system: HCV genotype 1; experiment: Phase 1b trial, Study VX04-950-101; conditions: subjects infected with HCV genotype 1
[4] = test system: VX-950-resistant variants of HCV; experiment: IC50 shift of VX-950-resistant variants
[5] = Oral bioavailability of VX-950 (statement); conditions: in vivo

CCC[C@H](NC(=O)[C@@H]1[C@H]2CCC[C@H]2CN1C(=O)[C@@H](NC(=O)[C@@H](NC(=O)c1cnccn1)C1CCCCC1)C(C)(C)C)C(=O)C(=O)NC1CC1 [VX-950]
pharmacokinetics of telaprevir among the different racial/ethnic groups [1]: No differences were observed | serious / severe adverse events [2]: No serious adverse events were reported; also recorded: No adverse events were considered to be severe | tolerability [2]: well tolerated at all dose levels | antiviral activity [3]: substantial antiviral activity | increase in IC50 [4]: 7-20 fold | oral bioavailability [5]: orally bioavailable
